Measured values taken from publication PMC3062254 (Molecular microbiology, 2011).

Columns and labels:
Experiment in all cases: NADPH/GSH reductase-coupled HED assay, A340
Format in all cases: biochemical
Details in all cases: read-out: Km (HED); 0.5 mM GSH, 0.2 mM NADPH, yeast GSH reductase, 50 mM sodium phosphate pH 7.5, 50 mM NaCl, 25 °C
[1] = target: eGrx1 (E. coli Grx1) (Escherichia coli, UniProt P68688)
[2] = target: cGrx1 (Clostridium selenoprotein Grx1) (Alkaliphilus oremlandii, UniProt A8MIN3, U13C)
[3] = target: cGrx2 (Clostridium Cys-containing Grx2) (Alkaliphilus oremlandii, UniProt A8MJH2)
[4] = target: cGrx2 (Clostridium Cys-containing Grx2) (Alkaliphilus oremlandii, UniProt A8MJH2, C15S)

Sequence of eGrx1 (E. coli Grx1) (P68688 whole entry): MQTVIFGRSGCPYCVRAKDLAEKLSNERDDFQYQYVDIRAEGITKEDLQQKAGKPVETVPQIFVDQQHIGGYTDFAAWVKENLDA

With `OCCSSCCO` [hydroxyethyl disulfide] the Km [1] was 11.2 ± 2.2 mM, the Km [2] was 1.5 ± 0.8 mM and the Km [3] was 17.6 ± 5.6 mM. For the same compound, the Km [4] was 18.1 ± 4.5 mM.
